Test results published in patent US20080249130A1, “Gut microsomal triglyceride transport protein inhibitors” (Sirtris Pharmaceuticals, Inc., priority 2007, published 2008).
“And” between values parts separate entries of the source, which are not always exact repeats. Equal entries are not always repeated. Where two headings read alike, the source gives them in different places.

Assays:
MTP [1] = molecular target: T1, MTP (Homo sapiens, UniProt P55157); assay: In vitro inhibition of MTP, triacylglycerol transfer assay with donor and acceptor liposomes (fluorescence); type: biochemical
Procedure: This assay is commercially available (Cat. #D400, Chylos Inc., New York). Liposomes are pipetted in 5 μl aliquots into the wells of a black fluorescence microtiter plate, followed by addition of 5 μl of water and an incubation of 2-5 min to allow the samples to equilibrate to rt. Next, 5 μl of compound dissolved in DMSO is added to the vesicles. The reaction is initated by the addition of 5 μl MTP, followed by incubation for 30 min at room temperature. […] Time of incubation can be increased to measure low activity in different samples. In such situations, samples are prepared just prior to measuring fluorescence units. For this purpose, isopropanol is added to substrate vesicles about 5 min prior to fluorescence measurement as the fluorescence readings in isopropanol decrease with time.

[2] = tested on: secretion of ApoB by HepG2 cells; assay: ApoB secretion inhibition assay in HepG2 cells (ApoB ELISA); type: cell-based, human; conditions: Homo sapiens
In short: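 HepG2 cells were serum-starved for 24 h, then treated for 24 h in DMEM with 1% BSA, 0.3 mM BSA-complexed oleic acid and 0.1% DMSO. Secreted ApoB in conditioned medium was measured by sandwich ELISA (A450). Viability was checked by AlamarBlue fluorescence.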

C57BL/6 male mice = assay: Murine food intake; type: in vivo; conditions: mice fasted overnight, 100 mg/kg PO, out through 6 hours
Procedure: C57BL/6 male mice, 18-22 grams (Wilmington, Mass. Charles River Labs), 10 mice per group, are fasted overnight (16 hrs). Mice are dosed PO at indicated dose (10 animals vehicle and 10 animals receive 100 mg/kg of test compound) and a preweighed amount of food is given to animals. Food is weighed every hour up to 6 hrs. Blood is collected at 2 to 6 hours.

MTP [3] = molecular target: T1, MTP; conditions: As referenced in Wetterau et al., Science 282: 751, 1998; read-out: gMTP IC50 Triacylglycerol Transfer Assay (Example 3); cited from earlier work
[4] = Table 6, assay of Example 3, read-out: IC50 Enzyme Assay
[5] = HepG2, Table 6, assay of Example 2, read-out: IC50 ApoB Assay
[6] = Tables 2-5, first symbol of the cell, read-out: IC50 Tri-acylglycerol (TAG) Transfer Assay (Example 3)
[7] = HepG2, Tables 2-5, second symbol of the cell, read-out: IC50 Apo B Secretion Assay (Example 2)

T1 sequence (P55157 19-894, species assumed): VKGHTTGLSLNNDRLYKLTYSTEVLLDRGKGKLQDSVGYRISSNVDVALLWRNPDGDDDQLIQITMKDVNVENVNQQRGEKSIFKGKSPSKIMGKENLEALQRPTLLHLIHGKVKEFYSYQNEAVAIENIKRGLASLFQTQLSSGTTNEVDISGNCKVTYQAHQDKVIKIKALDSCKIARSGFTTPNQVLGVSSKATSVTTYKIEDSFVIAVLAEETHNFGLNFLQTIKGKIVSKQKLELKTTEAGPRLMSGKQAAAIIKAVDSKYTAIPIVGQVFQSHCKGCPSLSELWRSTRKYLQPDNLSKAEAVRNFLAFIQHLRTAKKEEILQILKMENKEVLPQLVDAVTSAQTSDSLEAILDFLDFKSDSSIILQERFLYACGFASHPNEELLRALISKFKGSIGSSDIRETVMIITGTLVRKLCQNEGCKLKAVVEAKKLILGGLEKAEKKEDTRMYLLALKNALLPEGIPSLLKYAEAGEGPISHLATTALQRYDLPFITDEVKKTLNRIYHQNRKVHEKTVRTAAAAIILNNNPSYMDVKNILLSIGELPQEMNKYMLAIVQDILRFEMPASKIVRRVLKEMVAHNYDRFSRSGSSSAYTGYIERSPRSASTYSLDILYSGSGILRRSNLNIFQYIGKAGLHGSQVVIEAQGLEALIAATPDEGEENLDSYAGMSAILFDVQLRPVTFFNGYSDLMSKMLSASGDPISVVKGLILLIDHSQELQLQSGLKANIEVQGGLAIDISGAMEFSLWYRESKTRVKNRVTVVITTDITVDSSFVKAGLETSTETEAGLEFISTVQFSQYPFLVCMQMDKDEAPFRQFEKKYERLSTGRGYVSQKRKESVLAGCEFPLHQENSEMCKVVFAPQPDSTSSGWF
T1 sequence (P07237 18-508 partner, species assumed): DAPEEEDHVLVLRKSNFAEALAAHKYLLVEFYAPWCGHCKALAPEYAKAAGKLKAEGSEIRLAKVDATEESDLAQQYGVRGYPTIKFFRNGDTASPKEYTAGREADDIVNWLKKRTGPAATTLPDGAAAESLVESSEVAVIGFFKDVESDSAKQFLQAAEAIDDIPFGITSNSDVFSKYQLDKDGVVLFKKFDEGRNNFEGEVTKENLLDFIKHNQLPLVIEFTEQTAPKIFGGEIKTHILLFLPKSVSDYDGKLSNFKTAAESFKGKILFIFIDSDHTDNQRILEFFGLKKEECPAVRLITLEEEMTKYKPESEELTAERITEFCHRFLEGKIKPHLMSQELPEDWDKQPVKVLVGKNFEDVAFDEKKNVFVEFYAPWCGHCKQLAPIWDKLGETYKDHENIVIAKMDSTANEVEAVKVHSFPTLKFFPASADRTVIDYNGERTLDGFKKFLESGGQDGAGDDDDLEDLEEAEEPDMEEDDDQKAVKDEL

| IC50 (MTP [1]; [4]) | IC50 [2, 5] | Structure (SMILES) | further results |
| --- | --- | --- | --- |
| 20.5 nM and 7.9 nM | 2.4 nM | COc1cccc(C(=O)Nc2ccc3nc(C(=O)N[C@H](C(=O)N(C)Cc4ccc(F)cc4)c4ccccc4)sc3c2)c1-c1ccc(C(C)(C)C)cc1 [Compound 78] |  |
| 3.1 nM | 2.7 nM | COc1cccc(C(=O)Nc2ccc3nc(C(=O)N[C@H](C(=O)N4CCCC4)c4ccccc4)sc3c2)c1-c1ccc(C(F)(F)F)cc1 [Compound 79] |  |
| 10.2 nM | 13.2 nM | Cc1cccc(C(=O)Nc2nc(-c3ccc(C(=O)N[C@H](C(=O)N4CCCC4)c4ccccc4)cc3)cs2)c1-c1ccc(C(C)(C)C)cc1 [Compound 83] |  |
| 3.6 nM | 1.1 nM | COc1cccc(C(=O)Nc2ccc3nc(C(=O)N[C@H](C(=O)N4CCCC4)c4ccccc4)sc3c2)c1-c1ccc(C(C)C)cc1 [Compound 84] |  |
| 5.1 nM | 2.3 nM | Cc1cccc(C(=O)Nc2ccc3nc(C(=O)N[C@H](C(=O)N4CCCC4)c4ccccc4)sc3c2)c1-c1ccc(C(C)C)cc1 [Compound 85] |  |
| 9.9 nM and 5.2 nM | 1.5 nM | Cc1cccc(C(=O)Nc2ccc3nc(C(=O)N[C@H](C(=O)N(C)Cc4ccc(F)cc4)c4ccccc4)sc3c2)c1-c1ccc(C(C)C)cc1 [Compound 86] |  |

The next lines start with the compound.

| Structure (SMILES) | IC50 (MTP [1]; [4]) | IC50 [2, 5] | further results |
| --- | --- | --- | --- |
| Cc1csc2nc(-c3ccccc3C(=O)Nc3ccc4nc(C(=O)N[C@H](C(=O)N(C)Cc5ccc(F)cc5)c5ccccc5)sc4c3)cn12 [Compound 64, (S)—N-(2-((4-fluorobenzyl)(methyl)amino)-2-oxo-1-phenylethyl)-6-(2-(3-methylimidazo[2,1-b]thiazol-6-yl)benzamido)benzo[d]thiazole-2-carboxamide] | 95.8 nM | 6.9 nM |  |
| CN(Cc1ccc(F)cc1)C(=O)[C@@H](NC(=O)c1nc2ccc(NC(=O)c3ccccc3-c3nc(C(C)(C)C)cs3)cc2s1)c1ccccc1 [Compound 66, (S)-6-(2-(4-tert-butylthiazol-2-yl)benzamido)-N-(2-((4-fluorobenzyl)(methyl)amino)-2-oxo-1-phenylethyl)benzo[d]thiazole-2-carboxamide] | 4.6 nM | 4 nM |  |
| CC(C)(C)c1ccc(-c2ccccc2C(=O)NC23CCC(C(=O)N[C@H](C(=O)N4CCCC4)c4ccccc4)(CC2)CC3)cc1 [Compound 67, (S)-4-(4′-tert-butylbiphenyl-2-ylcarboxamido)-N-(2-oxo-1-phenyl-2-(pyrrolidin-1-yl)ethyl)bicyclo[2.2.2]octane-1-carboxamide] | 2.4 nM | 1.8 nM |  |
| CN(Cc1ccc(F)cc1)C(=O)[C@@H](NC(=O)C12CCC(NC(=O)c3ccccc3-c3ccc(C(C)(C)C)cc3)(CC1)CC2)c1ccccc1 [Compound 68, (S)-4-(4′-tert-butylbiphenyl-2-ylcarboxamido)-N-(2-((4-fluorobenzyl)(methyl)amino)-2-oxo-1-phenylethyl)bicyclo[2.2.2]octane-1-carboxamide] | 9.9 nM | 5.6 nM |  |
| CCCN(C)C(=O)[C@@H](NC(=O)C12CCC(CNC(=O)c3cccc(C)c3-c3ccc(C(C)(C)C)cc3)(CC1)CC2)c1ccccc1 [Compound 73] | 3.5 nM | 11.8 nM |  |
| Cc1cccc(C(=O)NCC23CCC(C(=O)N[C@H](C(=O)N(C)Cc4ccc(F)cc4)c4ccccc4)(CC2)CC3)c1-c1ccc(C(C)(C)C)cc1 [Compound 75] | 56.2 nM | 5.9 nM |  |
| COc1cccc(C(=O)Nc2ccc3nc(C(=O)N[C@H](C(=O)N4CCCC4)c4ccccc4)sc3c2)c1-c1ccc(C(C)(C)C)cc1 [Compound 77] | 3.8 nM | 1.2 nM |  |
| CN(Cc1ccc(F)cc1)C(=O)[C@@H](NC(=O)c1ccc2nc(NC(=O)c3ccccc3C3CCNCC3)ccc2c1)c1ccccc1 [Compound C1] |  |  | IC50 (MTP [1]; [6]): > 1010 nM; IC50 [2, 7]: > 1010 nM; drop in food intake compared to control (C57BL/6 male mice): ~50% |
| CN(Cc1ccc(F)cc1)C(=O)[C@@H](NC(=O)c1ccc2nc(NC(=O)c3ccccc3C3CCNC3)ccc2c1)c1ccccc1 (stereo partly drawn) [Compound C3] |  |  | IC50 (MTP [1]; [6]): 101 to 1000 nM; IC50 [2, 7]: > 1010 nM |
| CN(Cc1ccc(F)cc1)C(=O)[C@@H](NC(=O)c1ccc2nc(NC(=O)c3ccccc3-c3cn4ccsc4n3)ccc2c1)c1ccccc1 [Compound C5] |  |  | IC50 (MTP [1]; [6]): < 100 nM; IC50 [2, 7]: < 100 nM |
| O=C1C[C@@H](c2ccc(O)cc2)Oc2cc(O)cc(O)c21 [compound 1, Naringenin, reference compound] |  |  | inhibition in Triacylglycerol Transfer Assay (Example 3) (MTP [1]; at 200 μM): >90% inhibitionat 200 μM; inhibition at 200 µM (MTP [1]; at 200 μM, read-out: inhibition in Triacylglycerol Transfer Assay (Example 3)): > 90%; IC50 ([2]; HepG2, Table 1, HepG2 cells, read-out: gMTP IC50 ApoB Secretion Assay (Example 2)): 200000 nM; inhibition at 200 µM ([2]; at 200 μM, HepG2 cells): 50% |
| O=C(NC1CCN(CCCCC2(C(=O)NCC(F)(F)F)c3ccccc3-c3ccccc32)CC1)c1ccccc1-c1ccc(C(F)(F)F)cc1 [compound 2, N-(2,2,2-trifluoroethyl)-9-(4-(4-(4′-(trifluoromethyl)biphenyl-2-ylcarboxamido)piperidin-1-yl)butyl)-9H-fluorene-9-carboxamide] |  |  | IC50 (MTP [3]): 0.5 nM |
| CN(Cc1ccc(F)cc1)C(=O)[C@@H](NC(=O)C12CCC(CNC(=O)c3ccccc3-c3ccc(C(C)(C)C)cc3)(CC1)CC2)c1ccccc1 [drawing 120/drawing 118] |  |  | IC50 (MTP [1]; [6]): < 100 nM; IC50 [2, 7]: 101 to 1000 nM |
| CC(C)(C)c1ccc(-c2ccccc2C(=O)Nc2ccc3nc(C(=O)N[C@H](C(=O)N4CCCC4)c4ccccc4)sc3c2)cc1 [drawing 126/drawing 123] |  |  | IC50 (MTP [1]; [6]): < 100 nM; IC50 [2, 7]: < 100 nM |
